Results reported in patent US4146719A, “Piperazinyl derivatives of quinoline carboxylic acids” (priority 1977, dated 1979).
≈ marks a conversion by molar mass, not a printed value. Entries after “also recorded” stand apart in the source; their conditions may differ. Like-named read-outs stand apart in the source and are kept apart here.

How the values were obtained:
[1] = system: Streptococcus pyogenes IID 692; experiment: Antibacterial activity in vitro, M.I.C., agar dilution streak method; type: cell-based; settings: Streptococcus pyogenes, IID692; Gram +; read-out: M.I.C.
Shigella sonnei IID 969 = experiment: as above; type: cell-based; settings: Shigella sonnei, IID969; Gram -
[2] = system: Pseudomonas aeruginosa V-1; experiment: as above; type: cell-based; settings: Pseudomonas aeruginosa, V1; Gram -; read-out: M.I.C.
Sta. aureus ATCC 14775 = experiment: as above; type: cell-based, Staphylococcus aureus; settings: Staphylococcus aureus, ATCC14775; Gram +; read-out: M.I.C.
in vivo = settings: rat, po, 50 mg/kg
Method: (§2) Nutrient agar was heated and melted. Escherichia coli NIHJ JC-2 was added to melted agar, and well mixed, and 5 ml of the mixture was placed in Petri dish. Penicylinders were placed on the solidified agar, and the cylinder was filled with serum sample. The plate was placed in the incubator of 37° C. for 20 hours. The diameter of the inhibition zone was measured.
(§3) The tissue homogenates were prepared with 1:4 homogenates in M/15 phosphate buffer (pH 7.5).

[3] = system: Corynebacterium pyogenes IID 548; experiment: Antibacterial activity in vitro, M.I.C., agar dilution streak method; type: cell-based; settings: Corynebacterium pyogenes, IID548; Gram +
[4] = system: Mycobacterium phlei IFO 3142; experiment: as above; type: cell-based; settings: Mycolicibacterium phlei, IFO3142; Gram +; read-out: M.I.C.
Str. faecalis IID 682 = experiment: as above; type: cell-based; settings: Enterococcus faecalis, IID682; Gram +
[5] = system: Haemophilus influenzae IID 986; experiment: as above; type: cell-based; settings: Haemophilus influenzae, IID986; Gram -; read-out: M.I.C.
[6] = system: gram-positive and gram-negative bacteria including Pseudomonas aeruginosa; experiment: Antibacterial spectrum in vitro (summary in words); type: cell-based
E. coli ATCC 10536 = experiment: Antibacterial activity in vitro, M.I.C., agar dilution streak method; type: cell-based, Escherichia coli; settings: Escherichia coli, ATCC10536; Gram -; read-out: M.I.C.
[7] = system: Staphylococcus aureus 209P; experiment: as above; type: cell-based; settings: Staphylococcus aureus, 209P; Gram +; read-out: M.I.C.
My. smegmatis IFO 3083 = experiment: as above; type: cell-based; settings: Mycolicibacterium smegmatis, IFO3083; Gram +; read-out: M.I.C.
[8] = Concentrations in tissues after a single oral administration of 50 mg/kg in rats; settings: rat; for Tissue level, liver (free concentration): 50 mg/kg oral, mean ± S.E.
Method: as §2, §3

[9] = system: Escherichia coli NIHJ JC-2; experiment: Influence of kidney homogenate on antibacterial activity; type: cell-based
Method: (§1) Nutrient agar was heated and melted. […] The diameter of the inhibition zone was measured.

[10] = Concentrations in urine of rats after a single oral administration; type: in vivo; settings: rat; for concentration at 3 h: 0-3 hours; for concentration at 3 h / concentration at 6 h / concentration at 24 h / concentration at 27 h: mean ±S.E., read-out: Urinary level; for concentration at 6 h: 3-6 hours; for concentration at 24 h: 6-24 hours; for concentration at 27 h: 24-27 hours
[11] = rat, in vivo, po, 50 mg/kg
Method: as §2, §3

[12] = system: Escherichia coli NIHJ JC-2; experiment: Influence of serum on antibacterial activity; type: cell-based
Method: as §1

[13] = Chelate formation with ferric ion; type: physicochemical; settings: one third molar equivalent of ferric chloride hexahydrate, molar equivalent of sodium hydroxide, water
From the text: It is known that most of drugs such as Quinoform and Ethambutol which form chelates with metal ions in vivo produce undesirable side effects.

[14] = system: Bacillus subtilis PCI 219; experiment: Antibacterial activity in vitro, M.I.C., agar dilution streak method; type: cell-based; settings: Bacillus subtilis, PCI219; Gram +; read-out: M.I.C.
Ps. aeruginosa IID 1210 = experiment: as above; type: cell-based, Pseudomonas aeruginosa; settings: Pseudomonas aeruginosa, IID1210; Gram -; read-out: M.I.C.
[15] = Biliary excretion in rats after a single oral administration of 50 mg/kg; settings: rat, in vivo, po, 50 mg/kg
[16] = Serum concentrations at 30 min. after a single oral administration in rats; settings: rat
[17] = system: Neisseria perflava IID 856; experiment: Antibacterial activity in vitro, M.I.C., agar dilution streak method; type: cell-based; settings: Neisseria perflava, IID856; Gram -; read-out: M.I.C.
[18] = system: Klebsiella pneumoniae IFO 3512; experiment: as above; type: cell-based; settings: Klebsiella pneumoniae, IFO3512; Gram -; read-out: M.I.C.
Ps. aeruginosa IFO 12689 = experiment: as above; type: cell-based, Pseudomonas aeruginosa; settings: Pseudomonas aeruginosa, IFO12689; Gram -; read-out: M.I.C.

CCn1cc(C(=O)O)c(=O)c2cc(F)c(N3CCNCC3)cc21 [Compound (II), 1-ethyl-6-fluoro-1,4-dihydro-7-(1-piperazinyl)-4-oxoquinoline-3-carboxylicacid]
MIC [1]: 3.13 µg/mL (≈ 9.8 µM) | MIC (Shigella sonnei IID 969): 0.1 µg/mL (≈ 0.313 µM) | MIC [2]: 0.39 µg/mL (≈ 1.22 µM) | MIC (Sta. aureus ATCC 14775): 1.56 µg/mL (≈ 4.89 µM) | concentration at 0.5 h (in vivo): 11100 ± 2100 ng/g | concentration at 1 h (in vivo): 10300 ± 2000 ng/g | concentration at 2 h (in vivo): 6500 ± 900 ng/g | concentration at 4 h (in vivo): 3500 ± 900 ng/g | concentration at 6 h (in vivo): 1400 ± 100 ng/g | MIC [3]: 3.13 µg/mL | MIC [4]: 0.39 µg/mL (≈ 1.22 µM) | MIC (Str. faecalis IID 682): 3.13 µg/mL | MIC [5]: 0.05 µg/mL (≈ 0.157 µM) | antibacterial activity (in words) [6]: more active than nalidixic acid and pipemidic acid against both of gram-positive and gram-negative bacteria; also recorded: more active than gentamicin and carbenicillin against gram-negative bacteria including Pseudomonas aeruginosa; also recorded: inhibited even such bacteria those were not susceptible to nalidixic acid, pipemidic acid and carbenicillin | MIC (E. coli ATCC 10536): 0.05 µg/mL (≈ 0.157 µM) | MIC [7]: 0.78 µg/mL (≈ 2.44 µM) | MIC (My. smegmatis IFO 3083): 1.56 µg/mL (≈ 4.89 µM) | Tissue level, liver (free concentration) ([8]; 0.5 hrs.): 4.1 ± 0.9 µg/g | Tissue level, liver (free concentration) ([8]; 1 hr.): 3.7 ± 0.6 µg/g | Tissue level, liver (free concentration) ([8]; 2 hrs.): 2.5 ± 0.5 µg/g | Tissue level, liver (free concentration) ([8]; 4 hrs.): 1.2 ± 0.2 µg/g | Tissue level, liver (free concentration) ([8]; 6 hrs.): 0.7 ± 0.1 µg/g | concentration at 0.5 h ([8]; liver, po, 50 mg/kg): 9000 ± 1900 ng/g | concentration at 1 h ([8]; liver, po, 50 mg/kg): 7900 ± 1200 ng/g | concentration at 2 h ([8]; liver, po, 50 mg/kg): 5400 ± 1000 ng/g | concentration at 4 h ([8]; liver, po, 50 mg/kg): 2600 ± 400 ng/g | concentration at 6 h ([8]; liver, po, 50 mg/kg): 1500 ± 200 ng/g | antibacterial activity in presence of kidney homogenate (in words) [9]: decreased by liver and kidney homogenate | concentration at 3 h ([10]; 1.56 mg/kg oral): 1360 ± 140 ng/mL | concentration at 6 h ([10]; 1.56 mg/kg oral): 930 ± 140 ng/mL | concentration at 24 h ([10]; 1.56 mg/kg oral): 170 ± 50 ng/mL | concentration at 27 h ([10]; 1.56 mg/kg oral): 40 ± 10 ng/mL | concentration at 3 h ([10]; 3.13 mg/kg oral): 3390 ± 550 ng/mL | concentration at 6 h ([10]; 3.13 mg/kg oral): 3780 ± 440 ng/mL | concentration at 24 h ([10]; 3.13 mg/kg oral): 580 ± 90 ng/mL | concentration at 27 h ([10]; 3.13 mg/kg oral): 30 ng/mL | concentration at 3 h ([10]; 6.25 mg/kg oral): 9690 ± 2300 ng/mL | concentration at 6 h ([10]; 6.25 mg/kg oral): 8080 ± 1500 ng/mL | concentration at 24 h ([10]; 6.25 mg/kg oral): 1360 ± 200 ng/mL | concentration at 27 h ([10]; 6.25 mg/kg oral): 40 ng/mL | concentration at 3 h ([10]; 12.5 mg/kg oral): 21900 ± 3600 ng/mL | concentration at 6 h ([10]; 12.5 mg/kg oral): 16800 ± 1600 ng/mL | concentration at 24 h ([10]; 12.5 mg/kg oral): 4000 ± 500 ng/mL | concentration at 27 h ([10]; 12.5 mg/kg oral): 60 ± 20 ng/mL | concentration at 3 h ([10]; 25.0 mg/kg oral): 56800 ± 11100 ng/mL | concentration at 6 h ([10]; 25.0 mg/kg oral): 46400 ± 3800 ng/mL | concentration at 24 h ([10]; 25.0 mg/kg oral): 13500 ± 3000 ng/mL | concentration at 27 h ([10]; 25.0 mg/kg oral): 1200 ± 500 ng/mL | concentration at 3 h ([10]; 50.0 mg/kg oral): 89300 ± 19500 ng/mL | concentration at 6 h ([10]; 50.0 mg/kg oral): 99200 ± 15900 ng/mL | concentration at 24 h ([10]; 50.0 mg/kg oral): 32200 ± 100 ng/mL | concentration at 27 h ([10]; 50.0 mg/kg oral): 3100 ± 900 ng/mL | Tmax ([10]; oral, read-out: time of concentrations peak in urine): 0 to 6 h | Tissue level, kidney (free concentration) ([11]; 30 min): 7.4 ± 1.4 µg/g | Tissue level, kidney (free concentration) ([11]; 60 min): 6.8 ± 1.2 µg/g | Tissue level, kidney (free concentration) ([11]; 120 min): 4.4 ± 0.6 µg/g | Tissue level, kidney (free concentration) ([11]; 240 min): 1.9 ± 0.2 µg/g | Tissue level, kidney (free concentration) ([11]; 360 min): 1.0 ± 0.1 µg/g | antibacterial activity in presence of serum (in words) [12]: not decreased by serum | chelate compound with ferric ion [13]: did not give any chelate compound when treated with ferric ion | MIC [14]: 0.39 µg/mL (≈ 1.22 µM) | MIC (Ps. aeruginosa IID 1210): 1.56 µg/mL (≈ 4.89 µM) | biliary levels and cumulative excretion (in words) [15]: more excellent than those of nalidixic acid and pipemidic acid | concentration at 3 h [15]: 31000 ± 3500 ng/mL | concentration at 6 h [15]: 26400 ± 3200 ng/mL | concentration at 24 h [15]: 18900 ± 1600 ng/mL | concentration at 27 h [15]: 6700 ± 900 ng/mL | dose excreted at 3 h [15]: 0.6 ± 0.06% | dose excreted at 6 h [15]: 1.02 ± 0.11% | dose excreted at 24 h [15]: 2.43 ± 0.23% | dose excreted at 27 h [15]: 2.5 ± 0.23% | concentration at 0.5 h ([16]; 25 mg/kg): 310 ± 40 ng/mL | concentration at 0.5 h ([16]; 50 mg/kg): 870 ± 110 ng/mL | concentration at 0.5 h ([16]; 100 mg/kg): 1420 ± 230 ng/mL | concentration at 0.5 h ([16]; 200 mg/kg): 2230 ± 300 ng/mL | concentration at 0.5 h ([16]; 400 mg/kg): 3370 ± 350 ng/mL | MIC [17]: 0.05 µg/mL (≈ 0.157 µM) | MIC [18]: 0.05 µg/mL (≈ 0.157 µM) | MIC (Ps. aeruginosa IFO 12689): 1.56 µg/mL (≈ 4.89 µM)
